Assay results from patent US12427179B2, “Compositions and methods for diagnosis and treatment of neurodegenerative diseases” (EPITRACKER, INC., priority 2019, dated 2025).

How the values were obtained:
[1] = tested on: BT: Peripheral blood mononuclear cells, B cells (α-IgM, TCR ligands); test: BioMAP BT system; assay type: cell-based, human; settings: BT system; at the compound's active concentration
Description: (§1) Anti-inflammatory phenotypic profiling was conducted across 12 human primary cell-based systems as part of DiscoverX's BioMAP Diversity Plus program. These systems are designed to model complex human tissue and disease biology of the vasculature, skin, lung, and inflammatory tissues. Quantitative measurements of biomarker activities across this broad panel were used to assess each biochemical's anti-inflammatory activity at four concentrations ([…] and 2.2, 6.7 and 20 μM). […] Protein-based biomarkers from activated cell systems were measured and compared with controls. Biomarker activities were annotated when 2 or more consecutive concentrations change in the same directions relative to vehicle controls, were outside of the significance envelope and had at least one concentration with an effect size>20% (log 10 ratio)>0.1.
In the first system, human primary peripheral blood mononuclear cells and venular endothelial cells were stimulated with lipopolysaccharide (LPS) and incubated with the test agent, drug control, or vehicle control for 24 hours. In the second system, peripheral blood mononuclear cells and B cells were stimulated with α-IgM and T cell receptor ligands and incubated with the test agent, drug control, or vehicle control for 24 hours. In both systems, a negative, non-stimulated system was also included.
(§2) The Diversity PLUS panel allows test agent characterization in an unbiased way across a broad set of systems modeling various human disease states. These systems are designed to model complex human tissue and disease biology of the vasculature, skin, lung, and inflammatory tissues. Quantitative measurements of 148 biomarker activities across this broad panel, along with comparative analysis of biological activities from known bioactive agents, were used to predict and compare the efficacy and function of each selected compound at selected concentrations (6.7 and/or 20 μM).
(§3) BioMAP systems are constructed with one or more primary cell types from healthy human donors, with stimuli (such as cytokines or growth factors) added to capture relevant signaling networks that naturally occur in human tissue or pathological conditions. Vascular biology is modeled in both a Th1 (3C system) and a Th2 (4H system) inflammatory environment, as well as in a Th1 inflammatory state specific to arterial smooth muscle cells (CASM3C system). Additional systems recapitulate aspects of the systemic immune response including monocyte-driven Th1 inflammation (LPS system) or T cell stimulation (SAg system), chronic Th1 inflammation driven by macrophage activation (lMphg system) and the T cell-dependent activation of B cells that occurs in germinal centers (BT system). The BE3C system (Th1) and the BF4T system (Th2) represent airway inflammation of the lung, while the MyoF system models myofibroblast-lung tissue remodeling. Lastly, skin biology is addressed in the KF3CT system modeling Th1 cutaneous inflammation and the HDF3CGF system modeling wound healing.
(§4) Each test agent generates a signature BioMAP profile that is created from the changes in protein biomarker readouts within individual system environments. Biomarker readouts (7-17 per system) are selected for therapeutic and biological relevance, are predictive for disease outcomes or specific drug effects and are validated using agents with known mechanism of action (MoA). Each readout is measured quantitatively by immune-based methods that detect protein (e.g., ELISA) or functional assays that measure proliferation and viability. BioMAP readouts are diverse and include cell surface receptors, cytokines, chemokines, matrix molecules and enzymes. In total, the Diversity PLUS panel contains 148 biomarker readouts that capture biological changes that occur within the physiological context of the particular BioMAP system. […]

[2] = tested on: BE3C: Bronchial epithelial cells (IL-1β, IFNγ, TNFα); test: BioMAP BE3C system; assay type: cell-based, human; settings: at the compound's active concentration
Source text: (§5) The Diversity PLUS panel allows test agent characterization in an unbiased way across a broad set of systems modeling various human disease states. These systems are designed to model complex human tissue and disease biology of the vasculature, skin, lung, and inflammatory tissues.
as §3
(§6) Each test agent generates a signature BioMAP profile that is created from the changes in protein biomarker readouts within individual system environments. Biomarker readouts (7-17 per system) are selected for therapeutic and biological relevance, are predictive for disease outcomes or specific drug effects and are validated using agents with known mechanism of action (MoA). Each readout is measured quantitatively by immune-based methods that detect protein (e.g., ELISA) or functional assays that measure proliferation and viability. BioMAP readouts are diverse and include cell surface receptors, cytokines, chemokines, matrix molecules and enzymes.
(§7) Activated BioMAP systems were incubated with each compound for 24 to 72 hours. Protein-based biomarkers from activated cell systems were measured and compared with non-treated control systems.

[3] = tested on: human primary cell-based systems; test: BioMAP Diversity PLUS panel, phenotypic profiling; settings: tested at 6.7 and/or 20 μM; 24 to 72 hours
Description: as §1, with “controls.” for “controls. Biomarker activities were annotated when 2 or more consecutive concentrations change in the same directions relative to vehicle controls, were outside of the significance envelope and had at least one concentration with an effect size>20% (log 10 ratio)>0.1.”
as §2, §3
Each test agent generates a signature BioMAP profile that is created from the changes in protein biomarker readouts within individual system environments. Biomarker readouts (7-17 per system) are selected for therapeutic and biological relevance, are predictive for disease outcomes or specific drug effects and are validated using agents with known mechanism of action (MoA). Each readout is measured quantitatively by immune-based methods that detect protein (e.g., ELISA) or functional assays that measure proliferation and viability. BioMAP readouts are diverse and include cell surface receptors, cytokines, chemokines, matrix molecules and enzymes. In total, the Diversity PLUS panel contains 148 biomarker readouts that capture biological changes that occur within the physiological context of the particular BioMAP system.
as §7

[4] = tested on: CASM3C: Coronary artery smooth muscle cells (IL-1β, TNFα, IFNγ); test: BioMAP CASM3C system; assay type: cell-based, human; settings: CASM3C system; at the compound's active concentration
Source text: as §5, §3, §6, §7

[5] = tested on: 4H: Venular endothelial cells (IL-4, histamine); test: BioMAP 4H system; assay type: cell-based, human; settings: at the compound's active concentration
Source text: as §2
BioMAP systems are constructed with one or more primary cell types from healthy human donors, with stimuli (such as cytokines or growth factors) added to capture relevant signaling networks that naturally occur in human tissue or pathological conditions. Vascular biology is modeled in both a Th1 (3C system) and a Th2 (4H system) inflammatory environment, as well as in a Th1 inflammatory state specific to arterial smooth muscle cells (CASM3C system). […]
as §4, §7

[6] = tested on: /Mphg: Macrophages, venular endothelial cells (TLR2 ligand); test: BioMAP /Mphg system; assay type: cell-based, human; settings: at the compound's active concentration
Source text: as §2, §3, §4, §7

## O=C(O)CNC(=O)c1ccccc1 [hippurate]
[1]
  Secreted IgG, log10 reduction vs nontreated controls: −0.21 log10
[2]
  MMP-1, log10 reduction vs nontreated controls: −0.14 log10
[3]
  Active concentrations: 6.7 to 20 µM
[4]
  Thrombomodulin, log10 reduction vs nontreated controls: −0.16 log10
[5]
  P-selectin, log10 reduction vs nontreated controls: −0.10 log10
[6]
  IL-8, log10 reduction vs nontreated controls: −0.12 log10
